Source: patent US20230348453A1, “HALOGENATED-HETEROARYL AND OTHER HETEROCYCLIC KINASE INHIBITORS, AND USES THEREOF” (iOmx Therapeutics AG, priority 2020, published 2023)
Where two headings read alike, the source gives them in different places.

Columns and labels:
HCT116 cells = assay: TNF-sensitised cell viability assay (CellTiter-Glo); settings: Homo sapiens, HCT-116, read-out: HCT116 IC50 (at 10 ng/ml rHuTNF)
in vitro [1] = settings: mouse, microsomes
CSF1R = CSF1R (Homo sapiens (Human), UniProt P07333); format: biochemical; settings: Kinase Profiler
Sequence of CSF1R (P07333 20-972 limits assumed): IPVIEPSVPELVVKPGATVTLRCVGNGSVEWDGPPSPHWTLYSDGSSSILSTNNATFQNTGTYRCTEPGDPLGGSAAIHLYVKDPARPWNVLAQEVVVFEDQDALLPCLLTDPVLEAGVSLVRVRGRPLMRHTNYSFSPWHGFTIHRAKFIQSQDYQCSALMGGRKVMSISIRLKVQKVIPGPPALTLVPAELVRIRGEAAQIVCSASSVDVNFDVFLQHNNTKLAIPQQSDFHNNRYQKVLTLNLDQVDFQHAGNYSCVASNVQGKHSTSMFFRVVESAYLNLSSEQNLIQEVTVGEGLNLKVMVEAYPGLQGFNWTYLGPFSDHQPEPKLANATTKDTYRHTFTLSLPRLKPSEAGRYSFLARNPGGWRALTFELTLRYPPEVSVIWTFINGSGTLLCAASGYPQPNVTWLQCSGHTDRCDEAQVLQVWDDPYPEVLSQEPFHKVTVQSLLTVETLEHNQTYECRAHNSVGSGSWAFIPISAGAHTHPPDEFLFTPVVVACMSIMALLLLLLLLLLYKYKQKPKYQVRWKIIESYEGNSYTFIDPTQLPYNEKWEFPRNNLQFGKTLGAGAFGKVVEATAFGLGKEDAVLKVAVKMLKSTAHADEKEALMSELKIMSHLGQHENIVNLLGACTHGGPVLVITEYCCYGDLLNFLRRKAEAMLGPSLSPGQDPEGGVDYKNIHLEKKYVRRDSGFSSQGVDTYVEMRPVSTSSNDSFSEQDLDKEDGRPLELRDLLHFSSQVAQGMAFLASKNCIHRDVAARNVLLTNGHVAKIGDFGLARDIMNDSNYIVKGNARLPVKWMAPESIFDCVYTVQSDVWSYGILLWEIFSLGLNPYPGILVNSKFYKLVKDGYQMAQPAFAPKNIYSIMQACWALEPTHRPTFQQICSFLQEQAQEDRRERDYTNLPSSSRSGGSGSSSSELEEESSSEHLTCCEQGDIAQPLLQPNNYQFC

[2] = Metabolite profile in hepatocytes / in vivo
Text: Metabolites are identified using high-resolution mass spectrometry.

SIK3 [3] = target: T1, SIK3 (Homo sapiens (Human), UniProt Q9Y2K2)
[4] = test system: NFKB activity in MC38 cells; assay: TNF-induced NFKB activity (NFKB-dependent luciferase reporter); settings: 10 ng/ml rMuTNF
[5] = Human hepatocyte stability; format: in vitro ADME
[6] = female, C57BL/6, mouse, in vivo, 7 days
[7] = test system: MC38 colorectal carcinoma tumours; assay: MC38 syngeneic mouse tumour model (Example 8.1)
[8] = test system: MC38 murine tumour cell line; assay: TNF-sensitised cell viability assay (CellTiter-Glo); settings: Mus musculus
SIK3 [9] = target: T1, SIK3; assay: SIK3 kinase inhibition (IC50)
in vivo = settings: male, CD1, mouse, po, 30 mg/kg
[10] = MDCK wild type permeability/efflux; settings: dog
in vitro [11] = settings: human, microsomes
[12] = in vivo, po, 30 mg/kg
[13] = test system: SIK3 WT and KO MC38 clones; assay: TNF-mediated killing of SIK3 wildtype vs SIK3 knockout MC38 clones (CTG); format: cell-based, mouse; settings: sub-optimal TNF (<10 ng/ml), 72 h
Experimental: The assay was performed as follows: MC38 SIK3 KO clones were generated using CRISPR. Cells were transfected with RNP complexes (Cas9+gRNA) containing gRNAS targeting SIK3 or non-targeting sequences (control). […] Subsequently, single cell clones were generated by limiting dilution. CRISPR-derived mutations in single clones were detected by next-generation sequencing and analysed using CRISPResso. Knockout and wildtype clones were selected and plated overnight. […] Cells treated with different concentrations of inhibitor but without TNF served as no TNF control. Cell viability was measured by CTG assay.

[14] = test system: NFKB activity in PANC-1 cells; assay: TNF-induced NFKB activity (NFKB-dependent luciferase reporter); settings: 10 ng/ml rHuTNF
[15] = Mouse hepatocyte stability; format: in vitro ADME; settings: hepatocytes
[16] = Murine plasma protein binding
[17] = Human plasma-protein binding
MDR1 (P-gp) = MDR1 (P-gp) (Homo sapiens (Human), UniProt P08183); assay: MDR1-MDCK effective efflux assay; settings: dog; for efflux ratio: Table 5.1B
[18] = target: MDR1 pump (P-gp), MDCK-MDR1 cells (Homo sapiens (Human), UniProt P08183); assay: MDR1-MDCK effective efflux assay; settings: Table 5.1B
HCK = HCK (Homo sapiens (Human), UniProt P08631); format: biochemical; settings: Kinase Profiler
[19] = test system: HDAC4 phosphorylation in PANC-1 cells; assay: HDAC4 phosphorylation (Meso Scale Discovery assay); settings: 10 ng/mL rHuTNF
SIK2 = SIK2 (Homo sapiens (Human), UniProt Q9H0K1); assay: SIK2 kinase inhibition (IC50); settings: read-out: Kinase: IC50 (nM) SIK2
[20] = Screening PK in mice after 30 mg/kg po; settings: for concentration at 6 h: mice, 30 mg/kg po
[21] = test system: M579-A2-luc melanoma tumour cells; assay: Luciferase-based TNF killing assay; format: cell-based, human; settings: TNF 10 ng/mL; inhibitor between about 10 and 100 nM
Experimental: PANC1-luc is an HLA-A2.1+ luciferase-expressing pancreatic adenocarcinoma (PDAC) tumour cell line, and M579-A2-luc is an HLA-A2.1+ luciferase-expressing melanoma tumour cell line.
After lysis, luciferase assay buffer is added and immediately the luciferase intensity was measured by using the TECAN-Spark microplate reader.

[22] = mouse, in vivo, po, 30 mg/kg
[23] = test system: human breast skin explants; assay: Human skin explant eumelanisation
[24] = total plasma concentration at 30 mg/kg p.o dose, fold of C7 (C7 = 1×)

## Cc1nc(Nc2ncc(C(=O)Nc3c(CF)csc3Cl)s2)cc(N2CCN(C)C(C)C2)n1 (racemic) [Compound E10, N-(2-chloro-4-(fluoromethyl)thiophen-3-yl)-2-((6-(3,4-dimethylpiperazin-1-yl)-2-methylpyrimidin-4-yl)amino)thiazole-5-carboxamide]
HCT116 cells
  IC50: < 100 nM
In vitro [1]
  half-life: 14 min
  microsomal CLint: 99 µL/min/mg
CSF1R
  CSF1R residual activity: less than 1%
[2]
  quinone-imine reactive metabolite: not observed
SIK3 [3]; fold of the value of compound C7 (C7 = 1×)
  SIK3 IC50 (nM), relative to C7: 0.7×
[4]
  Inhibition of NFKB activity (MC38): ++
[5]
  Human hepatocyte stability, Half-life: 21 min
[5]; human, hepatocytes, read-out: Human hepatocyte stability, Half-life
  half-life: 21 to 30 min
[5]; human, hepatocytes, read-out: Human hepatocyte stability, Intrinsic clearance
  microsomal CLint: 67 µL/min/mg
[6]
  DLT@BID dosing: n.d. @30 mg/kg
  DLT@QD dosing: n.d. @30 mg/kg
  HRD in vivo @BID: 30 mg/kg
  HRD in vivo @QD: 30 mg/kg
[7]; MC38, dose not repeated
  TGI: 46%
[7]; MC38, 30 mg/Kg, BID po
  Body weight increase (%): 19.8%
  Non-treatment related death: 0/16
  Tumour growth inhibition (%): 46%
[8]; MC-38, read-out: MC38 IC50 (at 100 ng/mL rMuTNF)
  IC50: < 100 nM
[8]; MC-38, read-out: mean EC50 of sensitising MC38 tumour cells to TNF-mediated killing
  EC50: < 100 nM
SIK3 [9]
  IC50: 20 to 50 nM
In vivo
  AUC(0-inf): 6.17 µM·h
  AUC(0-t): 5.92 µM·h
  Cmax: 2040 ng/mL
  MRT last: 246 min
  Tmax: 15 min
  half-life: 261 min
[10]
  Papp: 10 ×10⁻⁶ cm/s
  efflux ratio: 1.6
In vitro [11]
  half-life: 12 min
  microsomal CLint: 120 µL/min/mg
[12]; male, CD1, mouse
  % AUCextrap, Free: 4.05%
  % AUCextrap, Total: 4.05%
  AUCinf (nM*h), Free: 128.06 nM·h
  AUClast (nM*h), Free: 122.87 nM·h
[12]; mouse
  Rsq, Free: 0.81
  Rsq, Total: 0.81
[13]
  TNF-mediated killing in SIK3 WT vs KO MC38 clones: induced TNF-mediated killing only in SIK3 WT clones
[14]; PANC-1 reporter cells
  Inhibition of NFKB activity (PANC-1): ++
[15]
  half-life: 78 min
[15]; read-out: Mouse hepatocyte stability, Intrinsic clearance
  microsomal CLint: 18 µL/min/mg
[16]; Table 5.1A
  Murine plasma protein binding, Percentage unbound (%): 1%
[16]; mouse, plasma
  recovery at 4 h: 101%
[17]; Table 5.1A
  Human plasma-protein binding, Percentage unbound (%): 1%
[17]; human, plasma
  recovery at 4 h: 74%
MDR1 (P-gp); MDCK-MDR1
  Papp: 4 ×10⁻⁶ cm/s
MDR1 (P-gp); MDCK-MDR1, MDCK-MDR1 cells, Mean Efflux Ratio (MDR1)
  efflux ratio: 20 to 30
MDR1 (P-gp); MDCK-MDR1, P-gP driven efflux ratio (MDR1/wt)
  efflux ratio: 19
[18]
  MDCK-MDR1 cells, Mean Efflux Ratio (MDR1): 31
HCK
  HCK residual activity: less than 1%
[19]; 3 h
  Inhibition of HDAC4 phosphorylation: ++
SIK2
  IC50: < 20 nM
[20]; mouse, plasma, po, 30 mg/kg
  Cmax at 2 h: 374 ng/mL
[20]; mouse, plasma, po, 30 mg/kg, Free plasma concentration after 6 h (nM)
  concentration at 6 h: 3.3 nM
[20]; mouse, plasma, po, 30 mg/kg, Plasma concentration after 6 h (nM)
  concentration at 6 h: 157 nM
[20]; [24]
  AUC0-last (nM*h), relative to C7: 2×
  C max (ng/ml), relative to C7: 1.7×
  MRT0-last (h), relative to C7: 2.8×
  t1/2 (h), relative to C7: 14.5×

## Cc1nc(Nc2ncc(C(=O)Nc3c(Cl)cccc3Br)s2)cc(N2CCN(CCO)CC2)n1 [Compound B1, N-(2-bromo-6-chlorophenyl)-2-((6-(4-(2-hydroxyethyl)piperazin-1-yl)-2-methylpyrimidin-4-yl)amino)thiazole-5-carboxamide]
[21]
  cytotoxicity in the presence of TNF compared to inhibitor alone: increased cytotoxicity

## COc1c(F)cccc1NC(=O)c1cnc(Nc2cc(N3CCN(CCO)CC3)nc(C)n2)s1 [Compound B4, N-(3-fluoro-2-methoxyphenyl)-2-((6-(4-(2-hydroxyethyl)piperazin-1-yl)-2-methylpyrimidin-4-yl)amino)thiazole-5-carboxamide]
[21]
  cytotoxicity in the presence of TNF compared to inhibitor alone: fails to exhibit cytotoxicity

## CCOc1cccc(Cl)c1NC(=O)c1cnc(Nc2cc(N3CCN(CCO)CC3)nc(C)n2)s1 [Compound B8, N-(2-chloro-6-ethoxyphenyl)-2-((6-(4-(2-hydroxyethyl)piperazin-1-yl)-2-methylpyrimidin-4-yl)amino)thiazole-5-carboxamide]
[21]
  cytotoxicity in the presence of TNF compared to inhibitor alone: fails to exhibit cytotoxicity

## Cc1nc(Nc2ncc(C(=O)Nc3c(C)csc3Cl)s2)cc(N2CCN(C)CC2)n1 [Compound D9]
SIK3 [3]; read-out: SIK3 IC50
  IC50: ~60 nM
[22]
  Free concentration (nM) at 2 hours: 44 nM
  Free concentration (nM) at 6 hours: 8 nM
  Free concentration (nM) at 12 hours: 2.71 nM
[14]; PANC-1 reporter cells (Table 9C)
  Inhibition of NFKB activity: +
[19]; 3 h (Table 9C)
  Inhibition of HDAC4 phosphorylation: +

## COc1ccc(N(C(=O)Nc2c(C)cccc2C)c2cc(Nc3ccc(N4CCN(C)CC4)cc3)ncn2)c(OC)c1 [HG 9-91-01]
[23]; 8 days (1×/day)
  gross pigmentation of human skin explants, passive topical application: no significant gross pigmentation
[23]; compared to control
  melanin content (Fontana-Masson staining), passive application: marginally increased melanin
[23]; rubbing via an applicator
  gross pigmentation of human skin explants, mechanical application: induces significant gross pigmentation
